In patent US5512549A, “Glucagon-like insulinotropic peptide analogs, compositions, and methods of use” (Eli Lilly and Company, priority 1994, dated 1996):

Legend:
beagles [1] = experiment: Dog I.V. Hyperglycemic (150 mg/dl) Clamp Test; format: in vivo; details: I.V. 1.0 μg/kg
Method: (§1) a) Hyperglycemic Clamp Studies
(§2) Experiments were conducted in overnight-fasted, conscious, adult (1-2 years of age) male and female beagles weighing 8-15 kg. At least ten days prior to the study, animals were anesthetized with isoflurane, and a cut-down was made in the left or right inguinal region. Silastic catheters were inserted into the femoral artery and the proximal caudal femoral vein and secured with 4-0 silk suture. The free ends of the catheters were passed subcutaneously to the back using a trocar needle. The catheters were then filled with a glycerol/heparin solution (3:1, v/v; final heparin concentration of 250 KIU/ml), and the free ends were knotted and placed in a subcutaneous pocket to allow complete closure of the skin. Keflex® was administered both pre-operatively (20 mg/kg, IV and 20 mg/kg, I.M.) and post-operatively (250 mg, p.o. once daily for seven days) to prevent infections. Torbugesic (1.5 mg/kg, I.M.) was administered post-operativelyto control pain.
(§3) Blood was drawn just prior to the study day to determine the health of the animal. Only animals with hematocrits above 38% and leukocyte counts below 16,000/mm^3 were used.
(§4) The afternoon before the experiment, the free ends of the catheters were exteriorized from the subcutaneous pocket through a small incision made under local anesthesia (2% lidocaine), and the dog was fitted with a tether system jacket and collar assembly.
(§5) The morning of the experiment, the contents of the catheters were aspirated, the catheters were flushed with saline, and extension lines (protected by a stainless steel tether) were attached to the catheters. On mornings of IV injection experiments, an over-the-needle, teflon catheter was inserted percutaneously into a cephalic vein in preparation for the administration of an IV bolus of test substance. The dog was placed in a metabolic cage, and the catheter extension lines and tether were attached to a swivel system to allow the dog to move freely about the cage. At this time (-60 minutes), an exogenous infusion of glucose (50% w/v in water) was begun through the chronic venous catheter. Glucose was infused in a descending stepwise fashion over the first six minutes of the study to rapidly raise the plasma glucose concentration to 150 mg/dl. Plasma glucose concentrations were determined every 2.5 to 7.5 minutes throughout the remainder of the study, and the glucose infusion rate was adjusted appropriately to maintain the plasma glucose concentration at 150 mg/dl.
(§6) Sixty minutes after the start of the glucose infusion (time 0), test substance was administered either intravenously (1.0, 2.9, 5.0 or 10.0 μg/kg; dose dissolved in 2 ml of saline containing 0.3% dog albumin, w/v) through the previously inserted teflon catheter or subcutaneously (10 μg/kg; 150 μM in phosphate buffered saline) in the dorsal aspect of the neck.
(§7) Arterial blood samples (3.5 ml) were taken at -30, -15, 0, 2.5, 5, 7.5, 10, 12.5, 15, 20, 30, 45, 60, 75, 90, 105 and 120 minutes during the IV studies and at -30, -15, 0, 3, 6, 9, 12, 15, 20, 30, 45, 60, 75, 90, 105 and 120 minutes during the SC studies. Samples were collected in vacuum blood collection tubes containing disodium EDTA and immediately placed on ice. To prevent proteolytic cleavage of GLP-1(7-37) in the plasma samples, 1.5 ml of the EDTA containing blood were transferred to a polypropylene tube containing 40 μl of aprotinin (10,000 KIU/ml) and mixed well. The samples were centrifuged, and the resulting plasma was transferred to polypropylene test tubes and stored on ice for the duration of the study.
(§8) At the conclusion of the experiment, the animal was anesthetized (isoflurane); the catheters were flushed with fresh saline and filled with the glycerol/heparin mixture; the free ends of the catheters were knotted and placed subcutaneously as described earlier; and antibiotic was administered (300 mg Keflex®, I.M.). […]

beagles [2] = experiment: Dog S.C. Hyperglycemic (150 mg/dl) Clamp Test; format: in vivo; details: S.C. 10 μg/kg; for GIR Change AUC / Insulin Change AUC: 0-120 min; for GIR Change AUC / Insulin Change AUC / Max Insulin Change: mean ± SEM; for Max Insulin Change: 120 minute test period; for Duration of Insulin Effect: time average insulin change consistently >0.5 ng/ml
Method: as §1, §2, §3, §4, §5, §6, §7, §8

Lys^34 -N^ε -octanoyl-GLP-1(7-37)OH [Lys^34-N^ε-octanoyl-GLP-1(7-37)OH]
GIR Change AUC (beagles [1]; 0-60 min, mean ± SEM): 463 ± 12 mg/kg | Insulin Change AUC (beagles [1]; 0-60 min, mean ± SEM): 50 ± 2 ng·min/mL | Max Insulin Change (beagles [1]; 120 minute test period, mean ± SEM): 3.8 ± 1.0 ng/mL | Duration of Insulin Effect (beagles [1]; time average insulin change consistently ≥0.5 ng/ml): 15 min | GIR Change AUC (beagles [2]): 532 ± 112 mg/kg | Insulin Change AUC (beagles [2]): 29 ± 8 ng·min/mL | Max Insulin Change (beagles [2]): 0.6 ± 0.3 ng/mL | Duration of Insulin Effect (beagles [2]): not active

GLP-1(7-37)OH
GIR Change AUC (beagles [2]): 696 ± 145 mg/kg | Insulin Change AUC (beagles [2]): 64 ± 33 ng·min/mL | Max Insulin Change (beagles [2]): 1.6 ± 0.8 ng/mL | Duration of Insulin Effect (beagles [2]): 27 min
